One data set deals with T1, rat NaP2b (SLC34A2) (Rattus norvegicus, UniProt Q9JJ09).
T1 construct: host or cells: HEK293
T1 sequence (Q9JJ09 1-695): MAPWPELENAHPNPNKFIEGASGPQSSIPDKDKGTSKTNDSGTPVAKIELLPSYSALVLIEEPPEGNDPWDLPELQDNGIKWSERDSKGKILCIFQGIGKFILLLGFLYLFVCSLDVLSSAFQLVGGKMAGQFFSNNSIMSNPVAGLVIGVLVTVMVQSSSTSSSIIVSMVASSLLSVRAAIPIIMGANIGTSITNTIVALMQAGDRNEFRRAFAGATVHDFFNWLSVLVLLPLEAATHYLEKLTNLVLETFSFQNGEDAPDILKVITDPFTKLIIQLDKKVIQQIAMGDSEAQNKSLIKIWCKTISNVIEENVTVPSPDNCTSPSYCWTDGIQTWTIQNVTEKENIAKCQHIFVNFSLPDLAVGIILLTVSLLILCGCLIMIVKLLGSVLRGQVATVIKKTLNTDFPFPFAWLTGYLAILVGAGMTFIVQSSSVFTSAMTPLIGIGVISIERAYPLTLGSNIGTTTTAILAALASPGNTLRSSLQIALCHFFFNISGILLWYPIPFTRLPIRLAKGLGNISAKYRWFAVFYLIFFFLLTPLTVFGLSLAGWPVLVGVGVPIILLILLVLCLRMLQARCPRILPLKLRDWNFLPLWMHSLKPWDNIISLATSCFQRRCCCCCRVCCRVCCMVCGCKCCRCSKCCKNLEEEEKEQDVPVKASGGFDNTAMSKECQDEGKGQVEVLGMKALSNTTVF
The data set can be described thus: NaP2b-mediated Pi transport (33P uptake) in transfected HEK293 cells, rat transporter. The data set is classed as cell-based. Conditions: HEK293 cells transfected with rat NaP2b, 33P phosphate uptake, 100 uM KH2PO4; read-out: pIC50 range for rat Nap2b (converted). On the procedure:
(§1) HEK293 cells were obtained from the American Type Culture collection and propagated per their instructions. Expression clones for rat and human NaP2b (SLC34A2) were obtained from Open Biosystems (Catalog numbers MRN1768-9510282, and MHS1010-99823026, respectively). The sequence of the human protein was mutated to insert a threonine after residue 37, and to introduce a N39D mutation.
(§2) The rate of phosphate (Pi) uptake into HEK293 cells was measured using a modification of the method described by Mohrmann et al. (Mohrmann, I., Mohrmann, M., Biber, J., and Murer, H. (1986) Am. J. Phys. 250(3 Pt 1):G323-30.) Transfected HEK293 cells were treated with a pharmacological agent to minimize endogenous PiT-mediated phosphate transport activity, such that the only remaining sodium-dependent phosphate transport activity is that which was bestowed by introduction of the NaP2b genes.
(§3) Cells were seeded into 96-well plates at 25,000 cells/well and cultured overnight. Lipofectamine 2000 (Invitrogen) was used to introduce the NaP2b cDNA, and the cells were allowed to approach confluence during a second overnight incubation. […] Cells were then overlayed with either choline uptake buffer or sodium uptake buffer (14 mM Tris, 137 mM sodium chloride, 5.4 mM KCl, 2.8 mM CaCl2, 1.2 mM MgSO4, 100 uM KH2PO4, PiT-silencing agent, 1 mg/mL Bovine Serum Albumin, pH 7.4) containing 6-9 uCi/mL ^33P orthophosphoric acid (Perkin Elmer) and test compound. Each compound was tested at twelve concentrations ranging from 0.1 nM to 30 uM. Assays were run in duplicate.
(§4) After incubation for 3-30 minutes at room temperature, assay mixtures were removed, and the cells were washed twice with ice cold stop solution (137 mM sodium chloride, 14 mM Tris, pH 7.4). Cells were lysed by addition of 20 μL 0.1% Tween 80 followed by 100 μL scintillation fluid, and counted using a TopCount (Perkin Elmer).
(§5) pIC50 (the negative log of the IC50) values of the test compounds were calculated using GraphPad Prism.

The target of a further data set is T2, human NaP2b (SLC34A2) (Homo sapiens, UniProt O95436).
T2 construct: host or cells: HEK293
T2 sequence (O95436 1-690): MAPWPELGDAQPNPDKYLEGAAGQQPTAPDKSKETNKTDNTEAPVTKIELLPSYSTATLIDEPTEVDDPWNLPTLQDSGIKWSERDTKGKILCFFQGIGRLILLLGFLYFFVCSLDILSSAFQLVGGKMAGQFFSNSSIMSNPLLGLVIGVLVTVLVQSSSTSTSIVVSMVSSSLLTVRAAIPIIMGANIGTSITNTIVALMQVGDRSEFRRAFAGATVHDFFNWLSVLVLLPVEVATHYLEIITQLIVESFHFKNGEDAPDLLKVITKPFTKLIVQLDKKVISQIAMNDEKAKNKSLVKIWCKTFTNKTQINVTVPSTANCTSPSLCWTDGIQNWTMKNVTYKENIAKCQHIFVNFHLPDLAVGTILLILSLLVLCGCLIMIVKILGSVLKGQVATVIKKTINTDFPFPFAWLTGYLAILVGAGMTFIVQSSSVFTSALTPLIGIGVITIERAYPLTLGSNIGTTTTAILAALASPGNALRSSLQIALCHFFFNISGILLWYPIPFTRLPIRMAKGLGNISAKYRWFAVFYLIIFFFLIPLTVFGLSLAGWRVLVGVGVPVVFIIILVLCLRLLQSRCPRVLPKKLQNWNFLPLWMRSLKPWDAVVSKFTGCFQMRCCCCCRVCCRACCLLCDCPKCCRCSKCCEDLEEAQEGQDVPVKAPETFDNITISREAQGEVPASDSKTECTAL
The data set can be described thus: NaP2b-mediated Pi transport (33P uptake) in transfected HEK293 cells, human transporter. The data set is classed as cell-based. To be noted: HEK293 cells transfected with human NaP2b (Thr inserted after residue 37, N39D), 33P phosphate uptake, 100 uM KH2PO4; read-out: pIC50 range for human Nap2b (converted). On the procedure: as §1, §2, §3, §4, §5

Data set [1] can be described thus: Stability in simulated gastric and intestinal fluid. The data set is classed as in vitro ADME. To be noted: incubation 6 hr, 1-20 μM. On the procedure: Test compounds were incubated at 1-20 μM in simulated gastric fluid (SGF; standard USP solution with 3 mg/mL pepsin) or simulated intestinal fluid (SIF; standard USP solution with 3 mg/mL pancreatin) for 3 hr or 6 hr. HPLC-UV or HPLC-MS were used to determine test compound levels using peak area %. Results (Table 5) were reported as the percentage of test compound remaining after incubation in a given condition relative to test compound present at t=0 in the same condition.

The next data set has as its target T3, NaPi2b (Rattus norvegicus, UniProt Q9JJ09).
T3 construct: host or cells: HEK293
T3 sequence (Q9JJ09 1-695): T1 sequence (Q9JJ09 1-695)
As to the kind of experiment: Competition with phosphate: Pi transport assay repeated at 2.1 vs 0.1 mM phosphate. The data set is classed as cell-based. Conditions: potency for inhibition of NaPi2b at 2.1 vs 0.1 mM phosphate. On the procedure: To ascertain if an inhibitor was competitive for binding with phosphate, the procedure was repeated, but raising the concentration of the substrate in the assay mixture from 0.1 to 2.1 mM phosphate.

Turning to `O=C(O)c1cccc(SCc2cccc(C(=O)Nc3ccc(N4CCCCC4)cc3C(=O)Nc3cnc(-c4ccccc4)nc3)c2)c1` [Example 3, 3-((3-((2-((2-Phenylpyrimidin-5-yl)carbamoyl)-4-(piperidin-1-yl)phenyl)carbamoyl)benzyl)thio)benzoic acid], the IC50 at rat NaP2b (SLC34A2) was 1 to 7.94 µM.

Consider `CCN(CC)CCN(C)Cc1cccc(C(=O)Nc2ccc(N3CCCCC3)cc2C(=O)Nc2ncc(-c3ccc(C)c(C)c3)cn2)c1` [Example 7, 2-(3-(((2-(Diethylamino)ethyl)(methyl)amino)methyl)benzamido)-N-(5-(3,4-dimethylphenyl)pyrimidin-2-yl)-5-(piperidin-1-yl)benzamide], for which the IC50 at rat NaP2b (SLC34A2) was 1 to 7.94 µM. Turning to `O=C(O)CCOCCOCCOCCNC(=O)Cc1cccc(SCc2cccc(C(=O)Nc3ccc(N4CCCCC4)cc3C(=O)Nc3ncc(-c4ccccc4)cn3)c2)c1` [Example 17, 2-Oxo-1-(3-((3-((2-((5-phenylpyrimidin-2-yl)carbamoyl)-4-(piperidin-1-yl)phenyl)carbamoyl)benzyl)thio)phenyl)-6,9,12-trioxa-3-azapentadecan-15-oic acid], the IC50 at rat NaP2b (SLC34A2) and at human NaP2b (SLC34A2) was 1 to 7.94 µM in each case. For the compound `Cc1ccc(-c2cnc(NC(=O)c3cc(N4CCCCC4)ccc3NC(=O)c3cccc(CSCCC(=O)O)c3)nc2)cc1C` [Example 13, 3-(3-(2-(5-(3,4-dimethylphenyl)pyrimidin-2-ylcarbamoyl)-4-(piperidin-1-yl)phenylcarbamoyl)benzylthio)propanoic acid], the IC50 at rat NaP2b (SLC34A2) is 1 to 7.94 µM. The same measure, in the same setting: as for `O=C(NCCOCCO)c1cccc(C(=O)Nc2ccc(N3CCCCC3)cc2C(=O)Nc2ncc(-c3cccc(C(F)(F)F)c3)cn2)c1` [Example 8], the figure is 10 to 31.6 µM. For the compound `Cc1ccc(-c2cnc(NC(=O)c3cc(N4CCCCC4)ccc3NC(=O)c3cccc(CSCCC(=O)O)c3)cn2)cc1C` [Example 1, 3-((3-((2-((5-(3,4-Dimethylphenyl)pyrazin-2-yl)carbamoyl)-4-(piperidin-1-yl)phenyl)carbamoyl)benzyl)thio)propanoic acid], at rat NaP2b (SLC34A2), the IC50 is 1 to 7.94 µM. Same read-out and setting: in the case of `Cc1ccc(-c2cnc(NC(=O)c3cc(N4CCCCC4)ccc3NC(=O)c3cccc(C(=O)NCCOCCO)c3)nc2)cc1C` [Example 16, N1-(2-((5-(3,4-Dimethylphenyl)pyrimidin-2-yl)carbamoyl)-4-(piperidin-1-yl)phenyl)-N3-(2-(2-hydroxyethoxy)ethyl)isophthalamide] it was 10 to 31.6 µM. Still for that read-out and setting: as for `O=C(NCCOCCO)c1cccc(C(=O)Nc2ccc(N3CCCCC3)cc2C(=O)Nc2cnc(-c3cccc(C(F)(F)F)c3)cn2)c1` [Example 6, N1-(2-(2-Hydroxyethoxy)ethyl)-N3-(4-(piperidin-1-yl)-2-((5-(3-(trifluoromethyl)phenyl)pyrazin-2-yl)carbamoyl)phenyl)isophthalamide], the figure is 10 to 31.6 µM. Consider `CN(CCOCCOCCOCCC(=O)O)C(=O)c1cccc(C(=O)Nc2ccc(N3CCCCC3)cc2C(=O)Nc2cnc(-c3ccccc3)nc2)c1` [Example 15, 2-Methyl-1-oxo-1-(3-((2-((2-phenylpyrimidin-5-yl)carbamoyl)-4-(piperidin-1-yl)phenyl)carbamoyl)phenyl)-5,8,11-trioxa-2-azatetradecan-14-oic acid], for which the “% remaining, SGF” value in data set [1] (simulated gastric fluid with 3 mg/mL pepsin) was 97%. For the same compound, the “% remaining, SIF” value in data set [1] (simulated intestinal fluid with 3 mg/mL pancreatin) is listed as 98%. Further, the IC50 at rat NaP2b (SLC34A2) was 1 to 7.94 µM.

Take `Cc1ccc(-c2cnc(NC(=O)c3cc(N4CCCCC4)ccc3NC(=O)c3cccc(C(=O)NCCOCCO)c3)cn2)cc1C` [Example 5, N1-(2-((5-(3,4-Dimethylphenyl)pyrazin-2-yl)carbamoyl)-4-(piperidin-1-yl)phenyl)-N3-(2-(2-hydroxyethoxy)ethyl)isophthalamide]: at rat NaP2b (SLC34A2), the IC50 is 10 to 31.6 µM. Still for that read-out and setting: in the case of `O=C(O)CCSCc1cccc(C(=O)Nc2ccc(N3CCCCC3)cc2C(=O)Nc2ncc(-c3cccc(C(F)(F)F)c3)cn2)c1` [Example 14, 3-((3-((4-(Piperidin-1-yl)-2-((5-(3-(trifluoromethyl)phenyl)pyrimidin-2-yl)carbamoyl)phenyl)carbamoyl)benzyl)thio)propanoic acid] it was 10 to 31.6 µM; in that of `CCN(CC)CCN(C)Cc1cccc(C(=O)Nc2ccc(N3CCCCC3)cc2C(=O)Nc2ncc(-c3cccc(C(F)(F)F)c3)cn2)c1` [Example 9, 2-(3-(((2-(Diethylamino)ethyl)(methyl)amino)methyl)benzamido)-5-(piperidin-1-yl)-N-(5-(3-(trifluoromethyl)phenyl)pyrimidin-2-yl)benzamide], 10 to 31.6 µM. For the compound `CN(CCN1CCOCC1)C(=O)c1cccc(C(=O)Nc2ccc(N3CCCCC3)cc2C(=O)Nc2cnc(-c3cccc(C(F)(F)F)c3)nc2)c1` [Example 10, N1-Methyl-N1-(2-morpholinoethyl)-N3-(4-(piperidin-1-yl)-2-((2-(3-(trifluoromethyl)phenyl)pyrimidin-5-yl)carbamoyl)phenyl)isophthalamide], the IC50 at rat NaP2b (SLC34A2) and on human NaP2b (SLC34A2) was less than 1 µM throughout. The “Competitive with respect to Pi?” value at NaPi2b is listed as “No”. Consider `O=C(O)P(=O)(O)O` [PFA, reference compound], for which the “Competitive with respect to Pi?” value at NaPi2b is given as “Yes”.

(Values after patent publication US9289429B2, “Compounds and methods for inhibiting phosphate transport” (Ardelyx, Inc., priority 2010, dated 2016).)
